Experiment: osmotic coefficient (dimensionless); mn = molality of the nth substance listed, in mol/kg
Conditions: 318.15 K, 101 kPa, Liquid

CCCCn1cc[n+](C)c1.F[B-](F)(F)F [1-butyl-3-methylimidazolium tetrafluoroborate] + CC#N
osmometer
Conditions	osmotic coefficient
m1 = 0.0093	0.906
m1 = 0.0203	0.648
m1 = 0.0341	0.462
m1 = 0.0631	0.293
m1 = 0.0795	0.273
m1 = 0.1043	0.314
m1 = 0.1163	0.344
m1 = 0.1359	0.412
m1 = 0.1472	0.462
m1 = 0.1631	0.553
m1 = 0.1791	0.646
m1 = 0.2091	0.872

CCCCn1cc[n+](C)c1.[Br-] [1-butyl-3-methylimidazolium bromide] + O
vapor pressure osmometry
Conditions	osmotic coefficient
m1 = 0.022	0.944
m1 = 0.0461	0.926
m1 = 0.0726	0.894
m1 = 0.1241	0.855
m1 = 0.2702	0.809
m1 = 0.3522	0.785
m1 = 0.3994	0.777
m1 = 0.5204	0.755
m1 = 0.7354	0.726
m1 = 0.9713	0.713
m1 = 1.272	0.701
m1 = 2.024	0.69

CCCCn1cc[n+](C)c1.F[P-](F)(F)(F)(F)F [1-butyl-3-methylimidazolium hexafluorophosphate] + CC#N
osmometer
Conditions	osmotic coefficient
m1 = 0.0116	0.76
m1 = 0.019	0.636
m1 = 0.0321	0.477
m1 = 0.0366	0.436
m1 = 0.0544	0.323
m1 = 0.0691	0.278
m1 = 0.0918	0.287
m1 = 0.1015	0.314
m1 = 0.1285	0.415
m1 = 0.1496	0.515
m1 = 0.1789	0.692
m1 = 0.2032	0.857

CCCCn1cc[n+](C)c1.F[B-](F)(F)F [1-butyl-3-methylimidazolium tetrafluoroborate] + O
vapor pressure osmometry
Conditions	osmotic coefficient
m1 = 0.0101	1.01
m1 = 0.0355	0.992
m1 = 0.044	0.927
m1 = 0.0701	0.887
m1 = 0.0971	0.864
m1 = 0.152	0.808
m1 = 0.1977	0.793
m1 = 0.2891	0.739
m1 = 0.3968	0.672
m1 = 0.4678	0.657
m1 = 0.5632	0.611
m1 = 0.799	0.532
m1 = 1.023	0.473
m1 = 1.468	0.372
m1 = 2.417	0.257

Reference: the NIST ThermoML archive (doi:10.1016/j.fluid.2007.03.019)
